Reference: PMC7180948, “New Insights into 4-Anilinoquinazolines as Inhibitors of Cardiac Troponin I–Interacting Kinase (TNNi3K)” (Molecules, 2020)

Key:
Test in all cases: biochemical
Design in all cases: KINOMEscan competition binding panel (Eurofins DiscoverX), single concentration, % inhibition
Settings in all cases: read-out: 7 at 1 µM % inhibition
[1] = target: ROCK1 (Homo sapiens, UniProt Q13464)
Experimental: (§1) KinomeScan® Assay on 7 and 15 was performed as previously described by EuroFins DiscoverX [24]. GSK114 (7) and 15 were submitted for a KINOMEscan® assay to explore the selectivity profile across >400 human kinases at a compound concentration of 1 µM. […] GSK114 (7) is a narrow-spectrum TNNi3K inhibitor but has some potent off-targets including GAK which has been previously reported for this chemotype. […] If utilized together this set of compounds could be useful to investigate TNNi3K biology.

[2] = target: RIPK4 (Homo sapiens, UniProt P57078)
Experimental: as §1

[3] = target: EPHA5 (Homo sapiens, UniProt P54756)
Experimental: as §1

[4] = target: PAK6 (Homo sapiens, UniProt Q9NQU5)
Experimental: as §1

[5] = target: MET(M1250T) (Homo sapiens, UniProt P08581, M1250T)
Experimental: as §1

[6] = target: T1, MLK1 (Homo sapiens, UniProt P80192)
T1 construct: gene MAP3K9
Experimental: as §1

[7] = target: PIK3C2B (Homo sapiens, UniProt O00750)
Experimental: as §1

[8] = target: T2, ERK5 (Homo sapiens, UniProt Q13164)
T2 construct: gene MAPK7
Experimental: as §1

[9] = target: STK33 (Homo sapiens, UniProt Q9BYT3)
Experimental: as §1

[10] = target: T3, RSK3(Kin.Dom.2-C-terminal) (Homo sapiens, UniProt Q15349)
T3 construct: gene RPS6KA2; Kin.Dom.2-C-terminal
Experimental: as §1

[11] = target: T4, SGK (Homo sapiens, UniProt O00141)
T4 construct: gene SGK1
Experimental: as §1

[12] = target: T5, ARK5 (Homo sapiens, UniProt O60285)
T5 construct: gene NUAK1
Experimental: as §1

[13] = target: CDKL5 (Homo sapiens, UniProt O76039)
Experimental: as §1

[14] = target: PIK3CA(C420R) (Homo sapiens, UniProt P42336, C420R)
Experimental: as §1

[15] = target: DAPK2 (Homo sapiens, UniProt Q9UIK4)
Experimental: as §1

[16] = target: SRPK3 (Homo sapiens, UniProt Q9UPE1)
Experimental: as §1

[17] = target: T6, MEK4 (Homo sapiens, UniProt P45985)
T6 construct: gene MAP2K4
Experimental: as §1

[18] = target: PIK3CA(H1047L) (Homo sapiens, UniProt P42336, H1047L)
Experimental: as §1

[19] = target: T7, PAK7 (Homo sapiens, UniProt Q9P286)
T7 construct: gene PAK5
Experimental: as §1

[20] = target: HASPIN (Homo sapiens, UniProt Q8TF76)
Experimental: as §1

[21] = target: TEC (Homo sapiens, UniProt P42680)
Experimental: as §1

[22] = target: T8, LKB1 (Homo sapiens, UniProt Q15831)
T8 construct: gene STK11
Experimental: as §1

[23] = target: FGFR2 (Homo sapiens, UniProt P21802)
Experimental: as §1

[24] = target: TNK1 (Homo sapiens, UniProt Q13470)
Experimental: as §1

Sequence of TEC (P42680 whole entry): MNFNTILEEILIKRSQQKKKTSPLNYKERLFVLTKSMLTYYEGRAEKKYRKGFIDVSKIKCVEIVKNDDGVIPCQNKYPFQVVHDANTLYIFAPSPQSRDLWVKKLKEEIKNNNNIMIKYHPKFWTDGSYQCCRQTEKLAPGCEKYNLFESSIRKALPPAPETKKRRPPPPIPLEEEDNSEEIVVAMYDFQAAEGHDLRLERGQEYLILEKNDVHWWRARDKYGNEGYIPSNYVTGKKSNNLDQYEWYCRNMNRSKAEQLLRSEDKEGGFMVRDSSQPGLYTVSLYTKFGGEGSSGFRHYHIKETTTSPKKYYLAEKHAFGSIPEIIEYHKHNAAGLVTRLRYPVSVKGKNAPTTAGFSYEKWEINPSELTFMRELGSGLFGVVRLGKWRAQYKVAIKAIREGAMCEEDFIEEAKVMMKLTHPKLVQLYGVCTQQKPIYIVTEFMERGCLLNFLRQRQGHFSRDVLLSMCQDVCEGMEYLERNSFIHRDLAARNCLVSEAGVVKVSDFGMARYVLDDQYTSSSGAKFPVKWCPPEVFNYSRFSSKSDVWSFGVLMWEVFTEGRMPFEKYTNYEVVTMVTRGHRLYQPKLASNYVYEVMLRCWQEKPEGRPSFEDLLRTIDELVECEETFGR
Sequence of PIK3C2B (O00750 whole entry): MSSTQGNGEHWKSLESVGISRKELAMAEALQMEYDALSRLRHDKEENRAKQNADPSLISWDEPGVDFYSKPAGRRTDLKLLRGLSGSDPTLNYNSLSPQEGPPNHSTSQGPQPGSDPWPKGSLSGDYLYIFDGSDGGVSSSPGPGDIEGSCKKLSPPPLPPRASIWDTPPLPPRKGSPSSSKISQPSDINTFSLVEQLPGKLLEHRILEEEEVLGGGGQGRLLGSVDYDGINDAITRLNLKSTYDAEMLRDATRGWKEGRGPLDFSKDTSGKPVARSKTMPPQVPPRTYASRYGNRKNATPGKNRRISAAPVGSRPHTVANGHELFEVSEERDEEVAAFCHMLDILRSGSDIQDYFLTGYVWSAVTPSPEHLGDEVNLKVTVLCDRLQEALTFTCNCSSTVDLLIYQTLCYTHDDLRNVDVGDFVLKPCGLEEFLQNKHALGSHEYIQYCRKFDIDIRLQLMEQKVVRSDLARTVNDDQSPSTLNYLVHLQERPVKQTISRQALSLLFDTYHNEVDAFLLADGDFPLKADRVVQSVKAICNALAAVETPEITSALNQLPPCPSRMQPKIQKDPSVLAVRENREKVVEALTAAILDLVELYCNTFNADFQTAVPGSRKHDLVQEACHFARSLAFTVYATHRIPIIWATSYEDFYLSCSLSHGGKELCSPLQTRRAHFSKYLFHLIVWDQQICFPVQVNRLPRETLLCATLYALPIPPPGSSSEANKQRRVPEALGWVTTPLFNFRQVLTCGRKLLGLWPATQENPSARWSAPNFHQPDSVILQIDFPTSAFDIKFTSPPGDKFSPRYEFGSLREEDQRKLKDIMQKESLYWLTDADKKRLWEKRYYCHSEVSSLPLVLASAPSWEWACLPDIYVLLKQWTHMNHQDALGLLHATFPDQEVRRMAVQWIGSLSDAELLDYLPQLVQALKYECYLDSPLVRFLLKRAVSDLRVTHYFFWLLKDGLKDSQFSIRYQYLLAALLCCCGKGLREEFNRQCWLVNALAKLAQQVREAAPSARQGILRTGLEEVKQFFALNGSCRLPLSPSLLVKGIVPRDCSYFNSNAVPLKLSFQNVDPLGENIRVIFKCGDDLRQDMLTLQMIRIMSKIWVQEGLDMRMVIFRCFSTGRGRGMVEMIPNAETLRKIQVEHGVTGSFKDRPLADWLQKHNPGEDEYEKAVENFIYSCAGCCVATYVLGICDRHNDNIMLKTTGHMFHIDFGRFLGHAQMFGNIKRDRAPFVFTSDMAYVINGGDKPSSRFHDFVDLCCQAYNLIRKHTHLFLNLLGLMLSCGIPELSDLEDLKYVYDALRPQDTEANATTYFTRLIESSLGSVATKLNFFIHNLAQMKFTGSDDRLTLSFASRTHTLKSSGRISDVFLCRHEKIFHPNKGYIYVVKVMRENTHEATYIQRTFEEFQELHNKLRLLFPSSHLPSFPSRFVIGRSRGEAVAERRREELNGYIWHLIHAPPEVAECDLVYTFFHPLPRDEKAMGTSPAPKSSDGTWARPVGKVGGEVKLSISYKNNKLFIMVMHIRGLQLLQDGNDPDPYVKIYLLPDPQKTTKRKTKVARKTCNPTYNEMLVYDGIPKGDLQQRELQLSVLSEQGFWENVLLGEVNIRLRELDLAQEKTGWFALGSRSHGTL
T8 sequence (Q15831 whole entry): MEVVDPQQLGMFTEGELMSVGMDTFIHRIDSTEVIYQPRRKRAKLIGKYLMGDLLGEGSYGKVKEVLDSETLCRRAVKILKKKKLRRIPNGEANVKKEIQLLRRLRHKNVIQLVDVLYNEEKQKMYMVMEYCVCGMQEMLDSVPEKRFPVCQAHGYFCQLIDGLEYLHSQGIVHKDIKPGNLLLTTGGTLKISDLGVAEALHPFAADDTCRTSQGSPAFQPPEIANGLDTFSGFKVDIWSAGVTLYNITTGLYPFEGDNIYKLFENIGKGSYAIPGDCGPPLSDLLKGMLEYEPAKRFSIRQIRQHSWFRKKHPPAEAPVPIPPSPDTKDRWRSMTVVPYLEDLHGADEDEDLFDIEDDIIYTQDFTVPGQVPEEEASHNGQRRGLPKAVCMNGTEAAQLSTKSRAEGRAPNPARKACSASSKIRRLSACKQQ
Sequence of DAPK2 (Q9UIK4 whole entry): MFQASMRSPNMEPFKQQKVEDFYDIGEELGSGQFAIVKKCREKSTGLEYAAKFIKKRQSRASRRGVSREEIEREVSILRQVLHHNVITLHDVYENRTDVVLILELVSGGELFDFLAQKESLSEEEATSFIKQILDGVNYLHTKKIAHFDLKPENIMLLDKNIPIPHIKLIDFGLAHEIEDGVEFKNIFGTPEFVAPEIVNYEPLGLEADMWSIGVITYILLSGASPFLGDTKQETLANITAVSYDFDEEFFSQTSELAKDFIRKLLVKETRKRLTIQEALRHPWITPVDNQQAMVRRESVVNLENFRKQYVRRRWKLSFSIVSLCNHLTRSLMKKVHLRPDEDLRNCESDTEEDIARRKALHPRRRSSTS
Sequence of MET(M1250T) (P08581 whole entry M1250T): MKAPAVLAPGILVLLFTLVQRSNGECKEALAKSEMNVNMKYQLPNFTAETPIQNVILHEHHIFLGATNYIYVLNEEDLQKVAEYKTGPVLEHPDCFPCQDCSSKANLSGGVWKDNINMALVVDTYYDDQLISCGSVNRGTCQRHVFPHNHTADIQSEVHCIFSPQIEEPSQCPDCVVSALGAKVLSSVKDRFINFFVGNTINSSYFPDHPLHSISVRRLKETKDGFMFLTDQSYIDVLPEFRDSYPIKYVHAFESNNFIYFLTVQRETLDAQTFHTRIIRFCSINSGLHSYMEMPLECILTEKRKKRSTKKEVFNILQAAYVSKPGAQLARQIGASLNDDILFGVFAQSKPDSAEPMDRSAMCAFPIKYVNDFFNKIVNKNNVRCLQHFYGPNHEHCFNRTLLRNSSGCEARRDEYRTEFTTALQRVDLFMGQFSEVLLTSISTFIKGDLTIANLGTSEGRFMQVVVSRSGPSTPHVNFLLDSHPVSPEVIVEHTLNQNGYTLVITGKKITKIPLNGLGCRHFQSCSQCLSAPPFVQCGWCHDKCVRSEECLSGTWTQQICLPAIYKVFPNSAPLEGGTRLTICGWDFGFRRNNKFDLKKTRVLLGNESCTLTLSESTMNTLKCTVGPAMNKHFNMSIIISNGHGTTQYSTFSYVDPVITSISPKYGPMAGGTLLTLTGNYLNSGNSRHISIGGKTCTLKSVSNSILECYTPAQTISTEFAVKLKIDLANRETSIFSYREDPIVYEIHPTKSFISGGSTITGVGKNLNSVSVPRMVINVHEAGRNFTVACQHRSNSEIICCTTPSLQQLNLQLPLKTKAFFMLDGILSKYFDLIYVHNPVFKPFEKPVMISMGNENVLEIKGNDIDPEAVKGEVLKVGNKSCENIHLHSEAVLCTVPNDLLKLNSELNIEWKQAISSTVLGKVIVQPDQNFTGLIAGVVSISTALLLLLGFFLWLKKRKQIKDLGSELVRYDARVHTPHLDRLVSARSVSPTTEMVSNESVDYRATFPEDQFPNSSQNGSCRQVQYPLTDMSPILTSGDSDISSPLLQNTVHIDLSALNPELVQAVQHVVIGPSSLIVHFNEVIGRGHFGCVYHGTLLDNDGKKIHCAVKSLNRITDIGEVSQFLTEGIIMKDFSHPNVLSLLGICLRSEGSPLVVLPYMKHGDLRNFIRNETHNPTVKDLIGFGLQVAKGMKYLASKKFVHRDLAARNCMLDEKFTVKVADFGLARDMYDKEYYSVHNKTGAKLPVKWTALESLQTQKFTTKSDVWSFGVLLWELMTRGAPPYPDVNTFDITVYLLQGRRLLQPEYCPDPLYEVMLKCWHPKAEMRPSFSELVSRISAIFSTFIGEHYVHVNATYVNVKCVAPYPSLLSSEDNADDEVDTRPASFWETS
Sequence of SRPK3 (Q9UPE1 whole entry): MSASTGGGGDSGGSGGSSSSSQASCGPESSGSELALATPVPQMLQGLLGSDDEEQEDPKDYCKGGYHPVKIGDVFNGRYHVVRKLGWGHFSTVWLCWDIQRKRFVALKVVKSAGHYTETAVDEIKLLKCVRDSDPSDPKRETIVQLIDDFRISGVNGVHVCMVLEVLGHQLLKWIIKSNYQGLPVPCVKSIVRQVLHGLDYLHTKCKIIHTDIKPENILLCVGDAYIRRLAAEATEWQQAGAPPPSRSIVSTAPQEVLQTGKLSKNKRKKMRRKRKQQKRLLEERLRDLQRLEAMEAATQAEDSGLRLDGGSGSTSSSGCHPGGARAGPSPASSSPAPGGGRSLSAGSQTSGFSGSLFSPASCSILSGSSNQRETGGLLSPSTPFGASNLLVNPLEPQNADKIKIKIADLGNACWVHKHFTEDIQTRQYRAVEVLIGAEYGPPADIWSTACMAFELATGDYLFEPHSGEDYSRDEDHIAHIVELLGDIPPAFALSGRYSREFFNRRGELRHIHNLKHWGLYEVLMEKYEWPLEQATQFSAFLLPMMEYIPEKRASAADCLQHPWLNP

## CNS(=O)(=O)c1ccc(N(C)C)c(Nc2ncnc3cc(OC)c(OC)cc23)c1 [compound 7, 3-((6,7-dimethoxyquinazolin-4-yl)amino)-4-(dimethylamino)-N-methylbenzenesulfonamide]
[1]
  inhibition at 1 µM: 1%
[2]
  inhibition at 1 µM: 0%
[3]
  inhibition at 1 µM: 0%
[4]
  inhibition at 1 µM: 7%
[5]
  inhibition at 1 µM: 0%
[6]
  inhibition at 1 µM: 10%
[7]
  inhibition at 1 µM: 77%
[8]
  inhibition at 1 µM: 6%
[9]
  inhibition at 1 µM: 6%
[10]
  inhibition at 1 µM: 0%
[11]
  inhibition at 1 µM: 1%
[12]
  inhibition at 1 µM: 0%
[13]
  inhibition at 1 µM: 9%
[14]
  inhibition at 1 µM: 5%
[15]
  inhibition at 1 µM: 0%
[16]
  inhibition at 1 µM: 0%
[17]
  inhibition at 1 µM: 37%
[18]
  inhibition at 1 µM: 0%
[19]
  inhibition at 1 µM: 0%
[20]
  inhibition at 1 µM: 3%
[21]
  inhibition at 1 µM: 0%
[22]
  inhibition at 1 µM: 0%
[23]
  inhibition at 1 µM: 0%
[24]
  inhibition at 1 µM: 37%
